Publication PMC6271890, “Synthesis and Antiproliferative Activity of Some Novel Triazole Derivatives from Dehydroabietic Acid” (Molecules, 2014)

Experiments:
[1] = system: bladder carcinoma (J82) cells; test: Antiproliferative assay (MTT reduction), J82 cells; type: cell-based, human; parameters: key to antiproliferative activity in words, J82: IC50 values > 100 µM were considered inactive; conditions: for IC50: Homo sapiens, 72 h, J82 bladder carcinoma cells, 3 days treatment, MTT, mean ± SD
Description: (§1) All human cell lines used in this work were purchased from the American Type Culture Collection (ATCC, Manasas, VA, USA). Normal lung MRC-5 fibroblasts (CCL-171), SK-MES-1 lung cancer cells (HTB-58) and J82 bladder carcinoma cells (HTB-1) were grown as monolayers in minimum essential Eagle medium (MEM) with Earles’s salts, 2 mM L-glutamine and 1.5 g/L sodium bicarbonate. Gastric adenocarcinoma AGS cells (CRL-1739) were grown as monolayers in Ham F-12 medium containing 1 mM L-glutamine and 1.5 g/L sodium bicarbonate. All media were supplemented with 10% heat-inactivated FBS, 100 IU/mL penicillin and 100 µg/mL streptomycin. Cells were grown in a humidified incubator with 5% CO2 in air at 37 °C. For the antiproliferative assay, cells were plated at a density of 5 × 10^4 cells/mL. Cells were seeded in 96-well plates (100 µL/well). One day after seeding, cells were treated with medium containing the compounds at concentrations ranging from 0 up to 100 µM during 3 days. The compounds were dissolved in DMSO (1% final concentration) and complete medium. Untreated cells (medium containing 1% DMSO) were used as 100% viability controls. […] Each concentration was tested in sextuplicate and experiments were repeated 2 times. Cell viability was determined by means of the MTT reduction assay at the end of the incubation with the products. The results were transformed to percentage of controls and the IC50 value was obtained adjusting the dose-response curve to a sigmoidal model. The software used was OriginPro 8.1 [23].

[2] = system: gastric epithelial adenocarcinoma (AGS) cells; test: Antiproliferative assay (MTT reduction), AGS cells; type: cell-based, human; parameters: key to antiproliferative activity in words, AGS: IC50 values > 100 µM were considered inactive; conditions: for IC50: Homo sapiens, 72 h, AGS gastric adenocarcinoma cells, 3 days treatment, MTT, mean ± SD
Description: as §1

[3] = system: lung cancer (SK-MES-1) cells; test: Antiproliferative assay (MTT reduction), SK-MES-1 cells; type: cell-based, human; conditions: for IC50: Homo sapiens, 72 h, SK-MES-1 lung cancer cells, 3 days treatment, MTT, mean ± SD; for antiproliferative activity in words, SK-MES-1: SK-MES-1 cells
Description: as §1, with “Normal lung MRC-5 fibroblasts (CCL-171), SK-MES-1 lung cancer cells (HTB-58) and J82 bladder carcinoma cells (HTB-1) were grown as monolayers in minimum essential Eagle medium (MEM) with Earles’s salts, 2 mM L-glutamine and 1.5 g/L sodium bicarbonate. Gastric adenocarcinoma AGS cells (CRL-1739) were grown as monolayers in Ham F-12 medium containing 1 mM L-glutamine and 1.5 g/L sodium bicarbonate.” left out, “The results were transformed to percentage of controls and the IC50 value was obtained adjusting the dose-response curve to a sigmoidal model.” left out

[4] = system: normal lung fibroblasts (MRC-5); test: Antiproliferative assay (MTT reduction), MRC-5 fibroblasts; type: cell-based, human; parameters: key to antiproliferative activity in words, MRC-5: IC50 values > 100 µM were considered inactive; conditions: for IC50: Homo sapiens, MRC5, 72 h, MRC-5 normal lung fibroblasts, 3 days treatment, MTT, mean ± SD; for antiproliferative activity in words, MRC-5: MRC-5 fibroblasts
Description: as §1, with “Normal lung MRC-5 fibroblasts (CCL-171), SK-MES-1 lung cancer cells (HTB-58) and J82 bladder carcinoma cells (HTB-1) were grown as monolayers in minimum essential Eagle medium (MEM) with Earles’s salts, 2 mM L-glutamine and 1.5 g/L sodium bicarbonate. Gastric adenocarcinoma AGS cells (CRL-1739) were grown as monolayers in Ham F-12 medium containing 1 mM L-glutamine and 1.5 g/L sodium bicarbonate.” left out, “The results were transformed to percentage of controls and the IC50 value was obtained adjusting the dose-response curve to a sigmoidal model.” left out

[5] = system: MCF-7, Hela and liver cancer 7721 cells; parameters: method as in PMID 21345546; conditions: range over MCF-7, Hela and liver cancer 7721 cells; read-out: IC50 values (cytotoxicity); cited from earlier work

Row | IC50 [1] [µM] | IC50 [2] [µM] | IC50 [3] [µM] | SMILES | IC50 [4] [µM] | antiproliferative activity in words, SK-MES-1 [3] | antiproliferative activity in words, MRC-5 [4] | antiproliferative activity in words, J82 ([1]; J82 cells) | antiproliferative activity in words, AGS ([2]; AGS cells) | IC50 [5] [µM]
1 | 46.3 ± 2.3 | 79.9 ± 4.8 | 77.3 ± 4.7 | CC(C)c1ccc2c(c1)CCC1[C@](C)(C(=O)OCc3cn(-c4ccccc4)nn3)CCC[C@]21C (some centres unmarked) [Compound 1, 18-((1-Phenyl-1H-1,2,3-triazol-4-yl)methyl)-8,11,13-abietatrienoate] | 85.8 ± 4.6 | – | – | – | – | –
2 | 76.3 ± 5.9 | 90.2 ± 5.4 | > 100 | CC(C)c1ccc2c(c1)CCC1[C@](C)(C(=O)OCCc3cn(-c4ccccc4)nn3)CCC[C@]21C (some centres unmarked) [Compound 2, 18-(2-(1-Phenyl-1H-1,2,3-triazol-4-yl)ethyl)-8,11,13-abietatrienoate] | > 100 | inactive | inactive | – | – | –
3 | > 100 | 94.4 ± 5.4 | > 100 | CC(C)c1ccc2c(c1)CCC1[C@](C)(C(=O)OCc3cn(CSc4ccccc4)nn3)CCC[C@]21C (some centres unmarked) [Compound 3, 18-((((1-Phenylthio)methyl)-1H-1,2,3-triazol-4-yl)methyl)-8,11,13-abietatrienoate] | > 100 | inactive | inactive | – | – | –
4 | 28.1 ± 1.7 | 66 ± 4.4 | 28.9 ± 2.1 | CC(C)c1ccc2c(c1)CCC1[C@](C)(C(=O)OCCc3cn(CSc4ccccc4)nn3)CCC[C@]21C (some centres unmarked) [Compound 4, 18-(2-(((1-Phenylthio)methyl)-1H-1,2,3-triazol-4-yl)ethyl)-8,11,13-abietatrienoate] | 50.2 ± 3.1 | – | – | – | – | –
5 | 83.3 ± 3.3 | 44.5 ± 1.9 | 6.1 ± 0.3 | CC(C)c1ccc2c(c1)CCC1[C@](C)(COC(=O)CCc3cn(-c4ccccc4)nn3)CCC[C@]21C (some centres unmarked) [Compound 5, 18-(3-(1-Phenyl-1H-1,2,3-triazol-4-yl)propanoyloxy)-8,11,13-abietatriene] | 17.1 ± 0.6 | – | – | – | – | –
6 | > 100 | > 100 | > 100 | CC(C)c1ccc2c(c1)CCC1[C@](C)(COC(=O)CCCCc3cn(-c4ccccc4)nn3)CCC[C@]21C (some centres unmarked) [Compound 6, 18-(5-(1-Phenyl-1H-1,2,3-triazol-4-yl)pentanoyloxy)-8,11,13-abietatriene] | > 100 | inactive | inactive | inactive | inactive | –
7 | 25.6 ± 1.9 | 36.7 ± 1.5 | 39.7 ± 2.7 | CC(C)c1ccc2c(c1)CCC1[C@](C)(COC(=O)CCc3cn(Cc4ccccc4)nn3)CCC[C@]21C (some centres unmarked) [Compound 7, 18-(3-(1-Benzyl-1H-1,2,3-triazol-4-yl)propanoyloxy)-8,11,13-abietatriene] | > 100 | – | inactive | – | – | –
8 | 26.8 ± 1.8 | 35.9 ± 1.7 | 37 ± 2.6 | CC(C)c1ccc2c(c1)CCC1[C@](C)(COC(=O)CCCCc3cn(Cc4ccccc4)nn3)CCC[C@]21C (some centres unmarked) [Compound 8, 18-(5-(1-Benzyl-1H-1,2,3-triazol-4-yl)pentanoyloxy)-8,11,13-abietatriene] | > 100 | – | inactive | – | – | –
9 | 49.9 ± 2.9 | 47.7 ± 2.9 | 43.6 ± 2.9 | CC(C)c1ccc2c(c1)CCC1[C@](C)(COC(=O)CCc3cn(CSc4ccccc4)nn3)CCC[C@]21C (some centres unmarked) [Compound 9, 18-(3-(((1-Phenylthio)methyl)-1H-1,2,3-triazol-4-yl)propanoyloxy)-8,11,13-abietatriene] | 73.3 ± 3.7 | – | – | – | – | –
10 | 33.9 ± 1.7 | 58.9 ± 3.4 | 42.7 ± 2.9 | CC(C)c1ccc2c(c1)CCC1[C@](C)(COC(=O)CCCCc3cn(CSc4ccccc4)nn3)CCC[C@]21C (some centres unmarked) [Compound 10] | > 100 | – | – | – | – | –
11 | > 100 | > 100 | > 100 | COc1ccc(-n2cc(CCC(=O)OC[C@]3(C)CCC[C@]4(C)c5ccc(C(C)C)cc5CCC34)nn2)cc1 (some centres unmarked) [Compound 11, 18-(3-(1-(4-Anisidyl)-1H-1,2,3-triazol-4-yl)propanoyloxy)-8,11,13-abietatriene] | > 100 | – | – | – | – | –
12 | > 100 | > 100 | > 100 | COc1ccc(-n2cc(CCCCC(=O)OC[C@]3(C)CCC[C@]4(C)c5ccc(C(C)C)cc5CCC34)nn2)cc1 (some centres unmarked) [Compound 12, 18-(5-(1-(4-Anisidyl)-1H-1,2,3-triazol-4-yl)pentanoyloxy)-8,11,13-abietatriene] | > 100 | – | – | – | – | –
13 | > 100 | > 100 | > 100 | CC(C)c1ccc2c(c1)CCC1[C@](C)(COC(=O)CCc3cn(-c4cccc(Cl)c4)nn3)CCC[C@]21C (some centres unmarked) [Compound 13, 18-(3-(1-(3-Chlorophenyl)-1H-1,2,3-triazol-4-yl)propanoyloxy)-8,11,13-abietatriene] | > 100 | – | – | – | – | –
14 | > 100 | > 100 | > 100 | CC(C)c1ccc2c(c1)CCC1[C@](C)(COC(=O)CCCCc3cn(-c4cccc(Cl)c4)nn3)CCC[C@]21C (some centres unmarked) [Compound 14, 18-(5-(1-(3-Chlorophenyl)-1H-1,2,3-triazol-4-yl)pentanoyloxy)-8,11,13-abietatriene] | > 100 | – | – | – | – | –
15 | > 100 | 74.9 ± 3.7 | 84.4 ± 5.1 | Cc1ccc(S(=O)(=O)n2cc(CCC(=O)OC[C@]3(C)CCC[C@]4(C)c5ccc(C(C)C)cc5CCC34)nn2)cc1 (some centres unmarked) [Compound 15, 18-(3-(1-(4-Toluenesulfonyl)-1H-1,2,3-triazol-4-yl)propanoyloxy)-8,11,13-abietatriene] | 82.9 ± 4.5 | – | – | – | – | –
16 | 75 ± 6.1 | 56.9 ± 3.3 | 74.2 ± 5.4 | Cc1ccc(S(=O)(=O)n2cc(CCCCC(=O)OC[C@]3(C)CCC[C@]4(C)c5ccc(C(C)C)cc5CCC34)nn2)cc1 (some centres unmarked) [Compound 16, 18-(5-(1-(4-Toluenesulfonyl)-1H-1,2,3-triazol-4-yl)pentanoyloxy)-8,11,13-abietatriene] | 68.8 ± 4.5 | – | – | – | – | –
17 | – | – | – | CN(C)CCN1C(=O)c2cccc3cc(N)cc(c23)C1=O [amonafide] | – | – | – | – | – | 1.68 to 4.27

Row | SMILES | IC50 [1] [µM] | IC50 [2] [µM] | IC50 [3] [µM] | IC50 [4] [µM] | antiproliferative activity in words, SK-MES-1 [3] | antiproliferative activity in words, MRC-5 [4] | antiproliferative activity in words, J82 ([1]; J82 cells) | antiproliferative activity in words, AGS ([2]; AGS cells) | IC50 [5] [µM]
18 | COc1cc([C@@H]2c3cc4c(cc3[C@@H](O[C@@H]3O[C@@H]5CO[C@@H](C)O[C@H]5[C@H](O)[C@H]3O)[C@H]3COC(=O)[C@H]23)OCO4)cc(OC)c1O [Etoposide, reference compound] | 3.49 ± 0.16 | 0.58 ± 0.02 | – | – | – | – | – | – | –
